# Reference: patent publication US12139481B2, “Compositions comprising macrocycle derivatives incorporating bridged macrocycles and methods of producing and using same” (Southwestern Oklahoma State University, priority 2015, dated 2024)
# How the values were obtained:
# [1] = system: methicillin-resistant S. aureus ATCC 33591 (MRS); test: Antibacterial broth dilution assay against MRSA (modified CLSI); type: cell-based, Staphylococcus aureus; details: for MRSa IC50 / IC50: in vitro; for IC50: converted with molecular weight; for X more potent than ciprofloxacen: molar IC50 ratio versus ciprofloxacen
# Protocol: (§1) General Experimental Procedures. All organisms were obtained from the American Type Culture Collection (Manassas, VA) and include the fungi Candida albicans ATCC 90028, C. glabrata ATCC 90030, C. krusei ATCC 6258, and Cryptococcus neoformans ATCC 90113, and the bacteria Staphylococcus aureus ATCC 29213 and methicillin-resistant S. aureus ATCC 33591 (MRS). All organisms were tested using modified versions of the CLSI (formerly NCCLS) methods. For all organisms, optical density was used to monitor growth (NCCLS, Reference Method for Broth Dilution Antifungal Susceptibility Testing of Yeasts; Approved Standard M27-A2. National Committee on Clinical Laboratory Standards, 2002 22 (15); and NCCLS, Methods for Dilution Antimicrobial Susceptibility Tests for Bacteria that Grow Aerobically; Approved Standard, Seventh Edition M7-A7. National Committee on Clinical Laboratory Standards, 2006. 26(2)).
# (§2) Samples (dissolved in DMSO) were serially-diluted in 20% DMSO/saline and transferred (10 μL) in duplicate to 96 well flat bottom microplates. Inocula were prepared by correcting the OD630 of microbe suspensions in incubation broth [RPMI 1640/0.2% dextrose/0.03% glutamine/MOPS @ pH 6.0 (Cellgro) for Candida spp., Sabouraud Dextrose for C. neoformans, and cation-adjusted Mueller-Hinton (Difco) @ pH 7.3 for Staphylococcus spp. to afford an assay volume of […] and final target inocula of: Candida spp. and C. neoformans: 1.5×10^3, and Staphylococcus spp.: 5.0×10^5 CFU/ml. Final sample test concentrations were 1/100th the DMSO stock concentration. […] All organisms were read at either 530 nm using the Biotek Powerwave XS plate reader (Bio-Tek Instruments, Vermont) prior to and after incubation: Candida spp. at 35° C. for 46-50 h, Staphylococcus spp. at 35° C. for 16-20 h, and C. neoformans at 35° C. for 70-74 h. IC50s (concentrations that afford 50% inhibition relative to controls) were calculated using XLfit 4.2 software (IDBS, Alameda, CA) using fit model 201. The MIC is defined as the lowest test concentration that allows no detectable growth. Minimum fungicidal or bactericidal concentrations were determined by removing 5 μl from each clear (or blue) well, transferring to fresh media, and incubating as previously mentioned. The MFC/MBC is defined as the lowest test concentration that kills the organism (allows no growth).
# (§3) Primary Analysis. Samples were tested in duplicate at one test concentration (50 μg/mL), and percent inhibitions were calculated relative to blank and growth controls. Samples showing 50% inhibition in at least one test organism were selected for dose response (Secondary) studies.
# (§4) Secondary Analysis. Extracts from the Primary Assay, and first-run pure compounds and column fractions were tested in duplicate at 3 test concentrations (5-fold dilutions). Samples dissolved to 20 mg/mL in DMSO were tested at 200, 40, and 8 μg/mL. Samples dissolved to 2 mg/mL in DMSO were tested at 20, 4, and 0.8 μg/mL.
# [2] = system: Staphylococcus aureus ATCC 29213; test: Antibacterial broth dilution assay against S. aureus (modified CLSI); type: cell-based; details: for S. aureus IC50 / IC50: in vitro; for IC50: converted with molecular weight; for X more potent than ciprofloxacen: molar IC50 ratio versus ciprofloxacen
# Procedure, shortened: (§5)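 Modified CLSI broth microdilution with OD monitoring before and after incubation at 35 °C: Candida in RPMI 1640/MOPS pH 6.0, 1.5×10^3 CFU/ml, 46-50 h; Staphylococcus in cation-adjusted Mueller-Hinton pH 7.3, 5.0×10^5 CFU/ml, 16-20 h. IC50 from curve fit; MIC is the lowest concentration with no growth; MFC/MBC from subculture.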
# [3] = system: L. donovani promastigotes; test: Antileishmanial Alamar Blue assay on promastigotes; type: cell-based, Leishmania donovani; details: for X more potent than Pentamidine: L. donovani, ratio of molar IC50 to Pentamidine; for L. donovani IC50 / IC50: promastigotes, 48 hours, Alamar Blue; for IC50: read-out: L. donavani IC50
# Procedure, shortened: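 L. donovani promastigotes in RPMI 1640 with 10% FCS, from 3-day culture, were set at 5×10^5/mL and exposed to compound (50-3.1 μg/mL) for 48 hours at 26° C. Growth read by Alamar Blue fluorescence (ex 544/em 590 nm); IC50 from percent growth versus concentration.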
# [4] = system: Cryptococcus neoformans ATCC 90113; test: Antimicrobial microdilution assay against Cryptococcus neoformans (modified CLSI/NCCLS, optical density); type: cell-based; details: for X more potent than Amphotericin B: C. neoformans, ratio of molar IC50 to Amphotericin B; for C. neoformans IC50 / IC50: in vitro, C. neoformans ATCC 90113; for IC50: read-out: C. neoformans IC50 (mol/L)
# Procedure, shortened: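 Broth microdilution (modified CLSI) in RPMI pH 6.0, samples serially diluted in 20% DMSO/saline and tested in duplicate, growth followed by OD630 before and after incubation. MFC is the lowest concentration giving no growth when 5 μL from clear wells is plated on agar.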
# [5] = system: C. glabrata ATCC 90030; test: Antifungal broth dilution assay against C. glabrata (modified CLSI); type: cell-based, Candida glabrata; details: for C. glabrata IC50 / IC50: in vitro; for IC50: converted with molecular weight; for X more potent than Amphotericin B: molar IC50 ratio versus amphotericin B
# Procedure, shortened: as §5
# [6] = system: C. krusei ATCC 6258; test: Antifungal broth dilution assay against C. krusei (modified CLSI); type: cell-based, Candida krusei
# Protocol: as §1, §2, §3, §4
compound,measurement,setting,value
c1ccc(CN2CCN3CCN(CC2)CCN(Cc2ccccc2)CC3)cc1 [ANCl4],MRSa IC50,[1],8.570 µg/mL
same,IC50,[1],22.6 µM
same,X more potent than ciprofloxacen,[1],0.01
same,S. aureus IC50,[2],8.810 µg/mL
same,IC50,[2],23.3 µM
same,X more potent than ciprofloxacen,[2],0.01
"CC(=O)[O-].F[P-](F)(F)(F)(F)F.[Co+2].c1ccc(CN2CCCN3CCCN(CCCN(Cc4ccccc4)CC3)CC2)cc1 [DJD21, [Co(Bn2PBCyclam)(OAc)]PF6]",MRSa IC50,[1],3.710 µg/mL
same,IC50,[1],5.43 µM
same,X more potent than ciprofloxacen,[1],0.04
same,X more potent than Pentamidine,[3],0.26
same,L. donovani IC50,[3],14.12 µg/mL
same,IC50,[3],20.7 µM
same,S. aureus IC50,[2],3.590 µg/mL
same,IC50,[2],5.25 µM
same,X more potent than ciprofloxacen,[2],0.05
same,X more potent than Amphotericin B,[4],0.05
same,C. neoformans IC50,[4],3.510 µg/mL
same,IC50,[4],5.13 µM
"CC(=O)[O-].F[P-](F)(F)(F)(F)F.[Zn+2].c1ccc(CN2CCCN3CCCN(CCCN(Cc4ccccc4)CC3)CC2)cc1 [DJD23, [Zn(Bn2PBCyclam)(OAc)]PF6]",MRSa IC50,[1],3.210 µg/mL
same,X more potent than ciprofloxacen,[1],0.05
same,X more potent than Pentamidine,[3],0.85
same,L. donovani IC50,[3],4.32 µg/mL
same,S. aureus IC50,[2],6.530 µg/mL
same,X more potent than ciprofloxacen,[2],0.03
same,X more potent than Amphotericin B,[4],0.08
same,C. neoformans IC50,[4],1.990 µg/mL
"c1cc(CN2CCN3CCNCCN(CC3)CC2)ccc1CN1CCN2CCNCCN(CC2)CC1 [JGL19, p-CB-H2Bcyclens]",MRSa IC50,[1],1.060 µg/mL
same,IC50,[1],2.12 µM
same,X more potent than ciprofloxacen,[1],0.10
same,X more potent than Pentamidine,[3],0.31
same,L. donovani IC50,[3],8.54 µg/mL
same,IC50,[3],17.1 µM
same,S. aureus IC50,[2],2.900 µg/mL
same,IC50,[2],5.81 µM
same,X more potent than ciprofloxacen,[2],0.05
same,X more potent than Amphotericin B,[4],0.20
same,C. neoformans IC50,[4],0.590 µg/mL
same,IC50,[4],1.18 µM
"c1ccc(CN2CCCN3CCCN(CCCN(Cc4ccccc4)CC3)CC2)cc1 [SLK09, Bn2PBCyclam]",MRSa IC50,[1],4.960 µg/mL
same,IC50,[1],11.8 µM
same,X more potent than ciprofloxacen,[1],0.02
same,X more potent than Pentamidine,[3],0.87
same,L. donovani IC50,[3],2.56 µg/mL
same,IC50,[3],6.09 µM
same,S. aureus IC50,[2],2.270 µg/mL
same,IC50,[2],5.4 µM
same,X more potent than ciprofloxacen,[2],0.05
same,X more potent than Amphotericin B,[4],0.11
same,C. neoformans IC50,[4],0.910 µg/mL
same,IC50,[4],2.16 µM
[Co2(p-CB-cyclam-cyclen)(OAc)2][PF6]2 [CMB027],MRSa IC50,[1],5.390 µg/mL
same,IC50,[1],4.99 µM
same,X more potent than ciprofloxacen,[1],0.04
same,C. glabrata IC50,[5],1.320 µg/mL
same,IC50,[5],1.22 µM
same,X more potent than Amphotericin B,[5],1.16
same,X more potent than Pentamidine,[3],0.18
same,L. donovani IC50,[3],32.62 µg/mL
same,IC50,[3],30.2 µM
same,S. aureus IC50,[2],7.36 µg/mL
same,IC50,[2],6.81 µM
same,X more potent than ciprofloxacen,[2],0.04
same,X more potent than Amphotericin B,[4],0.32
same,C. neoformans IC50,[4],≤ 0.800 µg/mL
same,IC50,[4],0.74 µM
[Cu(Bn2PBCyclam)(OAc)]PF6•5H2O [BME10B],MRSa IC50,[1],5.350 µg/mL
same,IC50,[1],7.3 µM
same,X more potent than ciprofloxacen,[1],0.03
same,X more potent than Pentamidine,[3],1.07
same,L. donovani IC50,[3],3.64 µg/mL
same,IC50,[3],4.96 µM
same,S. aureus IC50,[2],5.670 µg/mL
same,IC50,[2],7.73 µM
same,X more potent than ciprofloxacen,[2],0.04
same,X more potent than Amphotericin B,[4],0.01
same,C. neoformans IC50,[4],13.810 µg/mL
same,IC50,[4],18.8 µM
[Fe(Bn2PBCyclen)(C2H3O2)]PF6•1.2NH4PF6 [AW037],MRSa IC50,[1],9.480 µg/mL
same,IC50,[1],11.2 µM
same,X more potent than ciprofloxacen,[1],0.02
same,X more potent than Pentamidine,[3],0.17
same,L. donovani IC50,[3],26.63 µg/mL
same,IC50,[3],31.4 µM
same,S. aureus IC50,[2],4.940 µg/mL
same,IC50,[2],5.83 µM
same,X more potent than ciprofloxacen,[2],0.05
same,X more potent than Amphotericin B,[4],0.02
same,C. neoformans IC50,[4],8.400 µg/mL
same,IC50,[4],9.9 µM
[Mn2(m-cyclam-homocyclen)][MnCl4]2•12H2O [AW047],MRSa IC50,[1],7.850 µg/mL
same,IC50,[1],6.09 µM
same,X more potent than ciprofloxacen,[1],0.03
same,S. aureus IC50,[2],5.380 µg/mL
same,IC50,[2],4.18 µM
same,X more potent than ciprofloxacen,[2],0.07
same,X more potent than Amphotericin B,[4],0.08
same,C. neoformans IC50,[4],3.770 µg/mL
same,IC50,[4],2.93 µM
[Ni2(m-CB-Homocyclens)(OAc)1.9][PF6]2.1 [CDG038],MRSa IC50,[1],9.080 µg/mL
same,IC50,[1],8.34 µM
same,X more potent than ciprofloxacen,[1],0.03
same,X more potent than Pentamidine,[3],0.29
same,L. donovani IC50,[3],19.92 µg/mL
same,IC50,[3],18.3 µM
same,S. aureus IC50,[2],9.58 µg/mL
same,IC50,[2],8.8 µM
same,X more potent than ciprofloxacen,[2],0.03
same,X more potent than Amphotericin B,[4],0.09
same,C. neoformans IC50,[4],3.010 µg/mL
same,IC50,[4],2.76 µM
[Ni2(m-cyclam-homocyclen)(OAc)2][PF6]2•H2O [AW050],MRSa IC50,[1],4.650 µg/mL
same,IC50,[1],4.18 µM
same,X more potent than ciprofloxacen,[1],0.05
same,X more potent than Pentamidine,[3],0.36
same,L. donovani IC50,[3],16.50 µg/mL
same,IC50,[3],14.8 µM
same,S. aureus IC50,[2],8.540 µg/mL
same,IC50,[2],7.68 µM
same,X more potent than ciprofloxacen,[2],0.04
same,X more potent than Amphotericin B,[4],0.25
same,C. neoformans IC50,[4],1.040 µg/mL
same,IC50,[4],0.935 µM
[Zn2(p-CB-cyclam-cyclen)(OAc)][PF6]3•4H2O [CMB030],MRSa IC50,[1],8.760 µg/mL
same,IC50,[1],7 µM
same,X more potent than ciprofloxacen,[1],0.03
same,C. glabrata IC50,[5],4.190 µg/mL
same,IC50,[5],3.35 µM
same,X more potent than Amphotericin B,[5],0.42
same,X more potent than Pentamidine,[3],0.21
same,L. donovani IC50,[3],31.32 µg/mL
same,IC50,[3],25 µM
same,S. aureus IC50,[2],7.86 µg/mL
same,IC50,[2],6.28 µM
same,X more potent than ciprofloxacen,[2],0.04
same,X more potent than Amphotericin B,[4],0.22
same,C. neoformans IC50,[4],1.380 µg/mL
same,IC50,[4],1.1 µM
m-SB-cyclens HCl salt [OB25B],X more potent than Amphotericin B,"[6]; C. krusei, ratio of molar IC50 to amphotericin B",0.21
same,C. krusei IC50,[6]; in vitro,6.530 µg/mL
same,IC50,"[6]; in vitro, read-out: C. krusei IC50 (mol/L)",7.05 µM
same,MRSa IC50,[1],5.450 µg/mL
same,IC50,[1],5.88 µM
same,X more potent than ciprofloxacen,[1],0.04
same,X more potent than Pentamidine,[3],0.43
same,L. donovani IC50,[3],11.45 µg/mL
same,IC50,[3],12.4 µM
same,S. aureus IC50,[2],5.940 µg/mL
same,IC50,[2],6.41 µM
same,X more potent than ciprofloxacen,[2],0.04
same,X more potent than Amphotericin B,[4],0.74
same,C. neoformans IC50,[4],0.300 µg/mL
same,IC50,[4],0.324 µM
